Test results from ChEMBL document CHEMBL6120958, “A Highly Atom-Efficient Prodrug Approach to Generate Synergy between H2S and Nonsteroidal Anti-inflammatory Drugs and Improve Safety” (J Med Chem, 2024).
The source made the active and inactive calls. No cut-off for these calls is given here.

Legend:
[1] = Stability of the compound in PBS at 500 uM measured within 144 hrs at pH 7.4 at 37 degC by HPLC analysis; format: physicochemical; conditions: buffer, pH 7.4, 144 h
[2] = Stability of the compound in PBS at 500 uM measured for 3 months at pH 7.4 at -20 degC by HPLC analysis; format: physicochemical; conditions: buffer, pH 7.4, 2190 h
[3] = Stability of the compound in rat plasma assessed as half life by LC-MS/MS analysis; format: ADME, cell-free
[4] = Stability in Wistar rat assessed as parent drug level in blood at 10.5 mg/kg, po administered via gavage measured after 5 mins by LC-MS/MS analysis; format: ADME, organism-based; conditions: in vivo
[5] = Drug metabolism in Wistar rat assessed as DCF level in blood at 10.5 mg/kg, po administered via gavage measured after 5 mins by LC-MS/MS analysis; format: ADME, organism-based; conditions: in vivo
[6] = Drug metabolism in Wistar rat assessed as DCF level in blood at 10.5 mg/kg, po administered via gavage measured after 10 mins by LC-MS/MS analysis; format: ADME, organism-based; conditions: in vivo
[7] = Oral bioavailability in Wistar rat at 10.5 mg/kg; format: ADME, organism-based; conditions: in vivo
Rattus norvegicus [8] = experiment: Antiinflammatory activity against collagen-induced arthritis Wistar rat model assessed as reduction in toe swelling at 33.7 umol/kg, po administered for 28 days via gavage; format: functional, organism-based; conditions: dose 33.7 µmol/kg, time 28.0 day
Rattus norvegicus [9] = experiment: Antiinflammatory activity against collagen-induced arthritis Wistar rat model assessed as reduction in IL-1 beta level in serum at 33.7 umol/kg, po administered for 28 days via gavage by ELISA; format: functional, organism-based; conditions: dose 33.7 µmol/kg, time 28.0 day
Rattus norvegicus [10] = experiment: Antiinflammatory activity against collagen-induced arthritis Wistar rat model assessed as increase in IL-10 level in serum at 33.7 umol/kg, po administered for 28 days via gavage by ELISA; format: functional, organism-based; conditions: dose 33.7 µmol/kg, time 28.0 day
[11] = Toxicity against collagen-induced arthritis Wistar rat model assessed as increase in body weight at 33.7 umol/kg, po administered for 28 days; format: organism-based; conditions: in vivo, 672 h, at 33.7 µmol/kg, time 28 day
[12] = Toxicity against collagen-induced arthritis Wistar rat model assessed as preserved mucosa integrity without gastrointestinal damage at 33.7 umol/kg, po administered for 28 days by Hematoxylin-Eosin staining based analysis; format: organism-based; conditions: in vivo, 672 h, dose 33.7 µmol/kg, time 28 day
[13] = Toxicity against collagen-induced arthritis Wistar rat model assessed as AST level in serum at 33.7 umol/kg, po administered for 28 days; format: organism-based; conditions: in vivo, 672 h, dose 33.7 µmol/kg, time 28 day
[14] = Toxicity against collagen-induced arthritis Wistar rat model assessed as glutathione level in liver at 33.7 umol/kg, po administered for 28 days; format: organism-based; conditions: in vivo, 672 h, dose 33.7 µmol/kg, time 28 day
[15] = Toxicity against collagen-induced arthritis Wistar rat model assessed as decrease in SOD activity in liver at 33.7 umol/kg, po administered for 28 days; format: organism-based; conditions: in vivo, 672 h, dose 33.7 µmol/kg, time 28 day
[16] = Toxicity against collagen-induced arthritis Wistar rat model assessed as creatinine level in serum at 33.7 umol/kg, po administered for 28 days; format: organism-based; conditions: in vivo, 672 h, dose 33.7 µmol/kg, time 28 day
[17] = Toxicity against collagen-induced arthritis Wistar rat model assessed as uric acid level in serum at 33.7 umol/kg, po administered for 28 days; format: organism-based; conditions: in vivo, 672 h, dose 33.7 µmol/kg, time 28 day
[18] = Toxicity against collagen-induced arthritis Wistar rat model assessed as decrease in CAT activity in kidney at 33.7 umol/kg, po administered for 28 days; format: organism-based; conditions: in vivo, 672 h, dose 33.7 µmol/kg, time 28 day
[19] = Toxicity against collagen-induced arthritis Wistar rat model assessed as gastric ulceration at 16.8 umol/kg, po administered for 28 days; format: organism-based; conditions: in vivo, 672 h, dose 16.8 µmol/kg, time 28 day
[20] = Toxicity against collagen-induced arthritis Wistar rat model assessed as increase in body weight at 16.8 umol/kg, po administered for 28 days; format: organism-based; conditions: in vivo, 672 h, at 16.8 µmol/kg, time 28 day
[21] = Toxicity against C57BL/6J mouse assessed as AST level in serum at 506 umol/kg, ip measured after 24 hrs; format: organism-based; conditions: in vivo, dose 506 µmol/kg
[22] = Toxicity against C57BL/6J mouse assessed as ALT level in serum at 506 umol/kg, ip measured after 24 hrs; format: organism-based; conditions: in vivo, dose 506 µmol/kg
[23] = Toxicity against Sprague-Dawley rat assessed as diarrhea at 10.5 mg/kg, po administered via gavage for 7 days; format: organism-based; conditions: in vivo, 168 h, time 7 day
[24] = Toxicity against Sprague-Dawley rat assessed as preservation of integrity of jejunal vili without crypt damage and less glandular structure loss in colon at 10.5 mg/kg, po administered via gavage for 7 days and measured at 2 hrs post-last drug dosage by Hematoxylin-Eosin staining based analysis; format: organism-based; conditions: in vivo, 168 h, time 7 day
[25] = Toxicity against Sprague-Dawley rat assessed as apoptosis in intestine at 10.5 mg/kg, po administered via gavage for 7 days and measured at 2 hrs post-last drug dosage by TUNEL immunofluorescence staining; format: organism-based; conditions: in vivo, 168 h, time 7 day
[26] = Toxicity against Sprague-Dawley rat assessed as valeric acid and caproic acid in feces at 10.5 mg/kg, po administered via gavage for 7 days and measured at 2 hrs post-last drug dosage; format: organism-based; conditions: in vivo, 168 h, time 7 day
[27] = Toxicity against Sprague-Dawley rat assessed as dysbiosis in gut microbiota at 10.5 mg/kg, po administered via gavage for 7 days and measured at 2 hrs post-last drug dosage by 16S rRNA amplicon sequencing based PCA analysis; format: organism-based; conditions: in vivo, 168 h, time 7 day
[28] = Toxicity against Sprague-Dawley rat assessed as elevation of beneficial gut probiotics(Prevotellaceae and Erysipelotrichaceae) at 10.5 mg/kg, po administered via gavage for 7 days and measured at 2 hrs post-last drug dosage by Kruskal-Wallis H test; format: organism-based; conditions: in vivo, 168 h, time 7 day
[29] = Toxicity against Sprague-Dawley rat assessed as potentially pathogenic bacteria (Clostridiaceae and Peptostreptococcaceae) level at 10.5 mg/kg, po administered via gavage for 7 days and measured at 2 hrs post-last drug dosage by Kruskal-Wallis H test; format: organism-based; conditions: in vivo, 168 h, time 7 day
[30] = Cardiotoxicity against Sprague-Dawley rat assessed as LDH level in serum at 14.2 mg/kg, ip administered for 6 days (reference value: 831.8 +/-23.1 U/L); format: toxicity, organism-based; conditions: in vivo, 144 h, time 6 day
[31] = Cardiotoxicity against Sprague-Dawley rat assessed as cTnI level in serum at 14.2 mg/kg, ip administered for 6 days (reference value: 1.9 +/-0.2 ng/ml); format: toxicity, organism-based; conditions: in vivo, 144 h, time 6 day
[32] = Cardiotoxicity against Sprague-Dawley rat assessed as MDA level in heart at 14.2 mg/kg, ip administered for 6 days; format: toxicity, organism-based; conditions: in vivo, 144 h, time 6 day
[33] = Cardiotoxicity against Sprague-Dawley rat assessed as SOD level in heart at 14.2 mg/kg, ip administered for 6 days; format: toxicity, organism-based; conditions: in vivo, 144 h, time 6 day
[34] = Cardiotoxicity against Sprague-Dawley rat assessed as striated muscle recovery with reduced vacuolation in heart at 14.2 mg/kg, ip administered for 6 days by Hematoxylin-Eosin staining analysis; format: toxicity, organism-based; conditions: in vivo, 144 h, time 6 day
[35] = Cardiotoxicity against Sprague-Dawley rat assessed as myocardial fibrosis at 14.2 mg/kg, ip administered for 6 days by Masson staining analysis; format: toxicity, organism-based; conditions: in vivo, 144 h, time 6 day
[36] = Cardiotoxicity against Sprague-Dawley rat assessed as decrease in cleaved caspase-3 level in heart at 14.2 mg/kg, ip administered for 6 days by immunofluorescence staining analysis; format: toxicity, organism-based; conditions: in vivo, 144 h, time 6 day
[37] = Cardiotoxicity against Sprague-Dawley rat assessed as increase in Bcl-2 level in heart at 14.2 mg/kg, ip administered for 6 days by immunofluorescence staining analysis; format: toxicity, organism-based; conditions: in vivo, 144 h, time 6 day
[38] = biological target: T1, Prostaglandin G/H synthase 1 (Ovis aries, UniProt P05979); experiment: Inhibition of ovine COX1 assessed as reduction in PGF2alpha production using arachidonic acid as substrate preincubated with enzyme for 10 mins followed by substrate addition and measured after 2 mins by ELISA
T1 sequence (P05979 whole entry): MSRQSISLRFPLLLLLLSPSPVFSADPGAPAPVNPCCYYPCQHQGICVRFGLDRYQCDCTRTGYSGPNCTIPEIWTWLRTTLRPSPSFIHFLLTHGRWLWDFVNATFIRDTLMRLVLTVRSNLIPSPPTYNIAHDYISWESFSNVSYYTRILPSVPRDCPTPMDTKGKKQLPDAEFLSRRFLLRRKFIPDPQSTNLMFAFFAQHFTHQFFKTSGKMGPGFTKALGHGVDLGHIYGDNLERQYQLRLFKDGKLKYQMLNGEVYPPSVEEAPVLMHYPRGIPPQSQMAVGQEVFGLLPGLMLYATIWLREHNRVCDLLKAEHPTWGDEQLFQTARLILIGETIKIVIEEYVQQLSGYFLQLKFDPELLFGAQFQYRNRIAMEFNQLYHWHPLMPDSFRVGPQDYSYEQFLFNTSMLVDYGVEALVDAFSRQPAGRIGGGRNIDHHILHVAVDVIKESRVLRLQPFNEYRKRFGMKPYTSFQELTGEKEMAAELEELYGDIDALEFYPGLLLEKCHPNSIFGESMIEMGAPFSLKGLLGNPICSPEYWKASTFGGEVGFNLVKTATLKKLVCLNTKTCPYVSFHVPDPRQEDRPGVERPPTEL

[39] = Toxicity against Sprague-Dawley rat assessed as decrease in crypt proliferation at 10.5 mg/kg, po administered via gavage for 7 days and measured at 2 hrs post-last drug dosage by Ki67 immunohistochemistry; format: organism-based; conditions: in vivo, 168 h, time 7 day

For `O=C([S-])Cc1ccccc1Nc1c(Cl)cccc1Cl.[Na+]`, the Stability [1] was “Stable”, the Stability [2] was “Stable” and the half-life [3] was 1.45 h. The Stability [4] was 2330 ng/mL, the Drug metabolism [5] was 942.7 ng/mL and the Drug metabolism [6] was 9755 ng/mL. The bioavailability [7] was 80%, the Activity (Rattus norvegicus [8]) was “Active” and the Activity (Rattus norvegicus [9]) was “Active”. The Activity (Rattus norvegicus [10]) was “Active”, the Activity [11] was 8% and the Activity [12] was “Non-toxic”. For the same compound, the Activity [13] was 50.2 U/L, the Activity [14] was 1.2 µg/mg and the Activity [15] was “Non-toxic”. The Activity [16] was 313.9 µmol/L, the Activity [17] was 123.9 µmol/L and the Activity [18] was “Non-toxic”. For the same compound, the Activity [19] was “Non-toxic”, the Activity [20] was 8% and the Activity [21] was 66.5 U/L. For the same compound, the Activity [22] was 45.9 U/L, the Activity [23] was “Non-toxic” and the Activity [24] was “Non-toxic”. The Activity [25] was “Non-toxic”, the Activity [26] was “Non-toxic” and the Activity [27] was “Non-toxic”. For the same compound, the Activity [28] was “Non-toxic”, the Activity [29] was “Non-toxic” and the Activity [30] was 1165 U/L. For the same compound, the Activity [31] was 2.7 ng/mL, the Activity [32] was “Non-toxic” and the Activity [33] was “Non-toxic”. The Activity [34] was “Non-toxic”, the Activity [35] was “Non-toxic” and the Activity [36] was “Non-toxic”. For the same compound, the Activity [37] was “Non-toxic”, the IC50 [38] was 35.9 nM and the Activity [39] was “Non-toxic”.
